Measurements reported in US9840470B2, “Targeting GLI proteins in human cancer by small molecules” (The Regents of the University of California, priority 2013, dated 2017).

Key:
[1] = system: NSCLC A549; assay: In vivo efficacy, mouse xenograft model (lung cancer A549); settings: 50 mg/kg i.p. daily for 14 days, then 50 mg/kg daily for 1x7 days; tumors weighed 43 days after inoculation
Description: The administered compounds were tested in vivo in the mouse xenograft model bearing human cancer cells. Briefly, female athymic nude mice strain NCRNU-M (5-10 weeks old, 20-25 grams in weight; Taconic, Germantown, N.Y.) was maintained in pathogen-free conditions. Three human cancer cell lines: NSCLC A549, melanoma MelJuso, and mesothelioma MS-1 were used. Five or ten mice were used in each group and injected s.c. with 3×10^6 cancer cells in the dorsal area in a volume of 100 μl. After inoculation, human cancer cells were allowed to grow in mice for 10-13 days to become visible tumor nodules. Animals were then injected with a compound of the embodiments at a dose of 50 mg/kg body weight (1 mg/mouse per day). Vehicle alone was used as control. The compounds and controls were adjusted in 40 ul volume for i.p. injection in the abdomens of the mice. Injections were performed daily around the same time for 14 days. […] Tumor size was measured every three to four days, and tumor volumes were calculated using width (x) and length (y) (x^2y/2, where x<y). Throughout this period, general toxicity of the treatments was also monitored by measuring body weight of the mice. […]
In vivo efficacy study of Compounds 1 and 4 in Mouse Xenograft Model (NSCLC A549) was examined. […] 43 days after the initial tumor inoculation, tumors were dissected from the mice of each group and their weights were measured using a scale. […]

[2] = system: Wnt signaling pathway; assay: Quantitative RT-PCR of canonical Wnt pathway genes in xenograft tumors; type: in vivo, mouse; settings: Melanoma tumor, pooled tumor from two mice, compared to controls
Description: Total RNA was isolated using Qiagen RNeasy Mini Kit (Valencia, Calif.). Hybridization probes and primers (Table 1) were purchased from Applied Biosystems (ABI, Foster City, Calif.). cDNA synthesis and Taqman® PCR were performed according to the manufactures' protocols. The gene expression was assayed in triplicate in ABI 7300 Real-time PCR System. Samples were normalized to their housekeeping gene GAPDH and then calculated by using 2^−dct method.
To examine whether Compounds 1, 2, 4, and 6 suppressed tumor growth through inhibition of the Wnt signaling pathway in vivo, expression of the key components and direct target genes of the Wnt pathway (e.g. Wnt2, Axin2, EGFR, and Cyclin D1) were analyzed by quantitative real-time RT-PCR using total RNA isolated from the xenograft tumors. GAPDH served as a control. This RT-PCR analysis was performed using a “pooled” tumor from two randomly selected mice of each group with reasonable size tumors. […] The results are shown in FIG. 4, where C is control and V is vehicle.

[3] = Histological (H&E) examination of mouse organs for toxicity; type: in vivo; settings: i.p. two doses daily for 6 days; liver, spleen, kidney, heart
Excerpt: After the in vivo studies were completed, different organs were resected from mice. These organs included liver, lung, heart, kidney, intestines, ovary, brain, spleen, skin, and muscle. The specimens were fixed in 4% buffered formaldehyde, embedded in paraffin, sectioned, and histologically analyzed by hematoxylin and eosin (HE) staining. The HE stained slides were examined by a mouse pathologist for toxicity evidence from all the organs as compared with vehicle controls. In addition, leukocytes (WBC: white blood cell, NE: neutrophil, LY: lymphocyte, MO: monocyte, EO: eosinophil, BA: basophil) from each animal from all treatment groups were collected and leukocyte population was counted through a blood cell counter.
To analyze toxicity of the Compounds 1, 2, 4, and 6 in vivo, each group (three mice) was i.p. injected with two doses of each Compound daily for 6 days, and then major mouse organs, such as liver, spleen, kidney, and heart were resected from the mice.

[4] = system: human MM cell lines (mesothelioma cells); assay: Combination treatment with chemotherapies, MTS proliferation assay, mesothelioma cells; type: cell-based; settings: 72 hours, Combination Index
Excerpt: Another assay for determining the number of viable cells in proliferation or cytotoxicity assays is the MTS assay, a colorimetric method. MTS assay reagents are commercially available (Promega Corp., Madison, Wis.). The reagent contains a tetrazolium compound [3-(4,5-dimethylthiazol-2-yl)-5-(3-carboxymethoxyphenyl)-2-(4-sulfophenyl)-2H-tetrazolium, inner salt; MTS] and an electron coupling reagent (phenazine ethosulfate; PES). PES has enhanced chemical stability, which allows it to be combined with MTS to form a stable solution. The MTS tetrazolium compound (Owen's reagent) is bioreduced by cells into a colored formazan product that is soluble in tissue culture medium. This conversion may be accomplished by NADPH or NADH produced by dehydrogenase enzymes in metabolically active cells. The quantity of formazan product as measured by the absorbance at 490 nm is directly proportional to the number of living cells in culture. Because the MTS formazan product is soluble in tissue culture medium, this assay requires fewer steps than procedures that use tetrazolium compounds such as MTT. The formazan product of MTT reduction is a crystalline precipitate that requires an additional step in the procedure to dissolve the crystals before recording absorbance readings at 570 nm.
Combination treatments of the Compounds with several chemotherapies: erlotinib (Tarceva®), PI3K inhibitor LY294002, TGFβ inhibitor SB431542, and pemetrexed (Alimta®) were performed in human NSCLC and MM cell lines (FIGS. 12-17). In all experiments, NSCLC and MM cell lines were treated with different doses of each compound or combination for 72 hours, and MTS assays were performed to determine the cell proliferations. Combination Index (CI), calculated by CalcuSyn software (Biosoft, Cambridge, UK), was applied to describe the effect of the combination effects of two compounds, where CI<1 indicates Synergism, CI=1 indicates Additive effects, and CI>1 indicates Antagonism. Student's t-tests were applied for statistical analysis.

CCCC1C(C(=O)NCCCC(C)(C)CO)C(c2ccc(F)cc2)=NN1c1ccccc1 (stereo not shown) [Compound 4, 3-(4-fluoro-phenyl)-1-phenyl-5-propyl-4,5-dihydro-1H-pyrazole-4-carboxylic acid (5-hydroxy-4,4-dimethyl-pentyl)-amide]
tumor weight compared to the control group [1]: decreased | expression of the key indicator of the canonical Wnt activation [2]: significantly down-regulated | toxicity in organs (H&E histology) [3]: No noticeable toxicity | combination effect with erlotinib (Tarceva) [4]: synergy
